The results in this text go back to PubChem BioAssay (NCI).

Values joined by “and” are separate entries in the source; they are usually repeats but may differ in a detail not shown here. Identical values can stand only once.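 Compound exposure: 48 hours, 5 concentrations, 96-well plates. Abbreviation: GI50, concentration required for 50% inhibition of growth. TGI marks complete inhibition of growth.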 Bounds are passed on as bounds.

Test in all cases: NCI tumour cell line growth inhibition, 48 h
The test system of assay [1] is HCC-2998 colon.
The subject of assay [2] is HCT-15 colon.
Assay [3] concerns HS 578T breast.
Assay [4] concerns HT29 colon.
For assay [5], the system named is MDA-MB-231 breast.
In assay [6] the test system is MOLT-4 leukemia.
The test system of assay [7] is OVCAR-4 ovarian.
The test system of assay [8] is SK-MEL-2 melanoma.
For assay [9], the system named is SK-MEL-28 melanoma.
In assay [10] the test system is TK-10 renal.

Turning to `CC(=O)C1=C(C)N(Cc2ccccc2)C2(O)C=CC(=O)C3=C(O)c4ccccc4C(=O)C312` (stereo not drawn), the GI50 in assay [1] is 13 µM; in assay [2] it was 1.81 µM; in assay [3] it was 18.5 µM; in [4], 3.71 µM; in assay [5], 2.1 µM; in assay [6] it was 3.34 µM. The GI50 in assay [7] was 4.84 µM; in [8] it was 20.8 µM; in assay [9], 2.36 µM; in [10], 2.82 µM. The TGI in assay [1] is 36.4 µM; in [2], 4.51 µM; in assay [3], 60 µM; in assay [4], above 100 µM; in assay [5], 5.97 µM; in [6] it was above 100 µM. Further, the TGI in assay [7] is 44.3 µM; in assay [8] it was above 100 µM; in assay [9] it was 6.1 µM; in [10] it was 6.18 µM.
Consider `CC1Cc2c(Cl)ncnc2N(C)c2ccccc21` (stereo not drawn), for which the GI50 is 3.01 µM in [1]; 3 µM in assay [2]; 1.36 µM in [3]; 2.47 µM in assay [4]; 2.39 µM in [5]; 3.46 µM in assay [6]. The GI50 in [7] was 3.02 µM; in assay [8] it was 2.61 µM; in assay [9], 1.82 µM; in [10], 2.57 µM. Also, the TGI in assay [1] is 10.6 µM; in assay [2] it was 11.3 µM; in assay [3], 47.3 µM; in assay [4], 7.27 µM; in assay [5] it was 5.05 µM; in assay [6] it was above 100 µM. For the same molecule, the TGI is above 100 µM in assay [7], 6.1 µM in assay [8], 26.5 µM in [9] and 8.87 µM in assay [10].
Consider `O=C1/C=C/[C@@H](O)[C@@H]2C[C@@H](O)C[C@H]2/C=C/CCC[C@H](CCO)O1`, for which the GI50 in [1] is 0.227 µM; in assay [2], 0.35 µM; in assay [3], 0.0519 µM; in [4], 0.0841 µM; in assay [5], 0.182 µM; in [6], 0.358 µM. In addition, the GI50 in [7] is 0.132 µM; in [8], 0.244 µM; in [9], 0.0466 µM; in assay [10] it was 0.245 µM. Moreover, the TGI was above 100 µM in assay [2]; above 100 µM in assay [3]; 1.31 µM in assay [4]; 0.391 µM in [5]; above 100 µM in assay [7]; 0.734 µM in assay [8]. The TGI in assay [9] turned out to be 0.56 µM; in assay [10] it was 0.832 µM.
Consider `O=C1C2=C(C(=O)c3ccccc31)C(O)(S(=O)(=O)O)C(O)(S(=O)(=O)O)C1N=CC=CC21` (stereo not drawn), for which the GI50 was 4.63 µM and 3.93 µM in [1]; 3.47 µM and 2.15 µM in [2]; 4.93 µM and 3.71 µM in assay [3]; 5.84 µM and 4.51 µM in assay [4]; 14.5 µM and 4.51 µM in [5]; 7.06 µM and 4.38 µM in assay [6]. The GI50 in [7] is 3.66 µM and 2.99 µM; in [8], 10.1 µM and 9.93 µM; in assay [9] it was 17 µM and 12.1 µM; in assay [10] it was 6.25 µM and 9.35 µM. Also, the TGI in assay [1] is 60.4 µM and 17.5 µM; in [2], above 100 µM; in [3], 75.7 µM and 29.8 µM; in assay [4] it was > 100 µM and 20.8 µM; in assay [5], > 100 µM and 46.6 µM; in [6], > 100 µM and 34.4 µM. Besides, the TGI was above 100 µM in [7]; 70.3 µM and 33.1 µM in assay [8]; 96.1 µM and 28.6 µM in assay [9]; 68.3 µM and 28.8 µM in [10].
In the case of `Clc1cnc(Nc2ccc(OCCN3CCCC3)cc2)nc1NCc1ccco1`, the GI50 is 2.92 µM in assay [1]; 2.72 µM in assay [2]; 1.39 µM in [3]; 2.19 µM in assay [4]; 2.48 µM in assay [5]; 1.86 µM in [6]. Also, the GI50 was 2.86 µM in [7], 1.8 µM in assay [8], 3.29 µM in [9] and 2.28 µM in assay [10]. In addition, the TGI in assay [1] worked out at 9.59 µM; in assay [2] it was 11.8 µM; in assay [3], 5.18 µM; in assay [4], 9.18 µM; in assay [5], 13.5 µM; in assay [6], 8.4 µM. The TGI in [7] was 13.9 µM; in assay [8], 3.48 µM; in [9], 10.7 µM; in assay [10] it was 11.8 µM.
For `CN(C(=O)C(C)(C)C)c1ccccc1I(=O)=O`, the GI50 was above 100 µM in [1]; 84.3 µM in [2]; above 100 µM in assay [3]; above 100 µM in assay [4]; above 100 µM in assay [5]; 3.45 µM in assay [6]. For the same molecule, the GI50 was above 100 µM in assay [7], above 100 µM in assay [8], 92.5 µM in assay [9] and above 100 µM in [10]. Besides, the TGI in [1], in assay [2], in [3], in assay [4], in [5] and in assay [6] was above 100 µM in each case. The TGI in [7], in [8], in [9] and in [10] was above 100 µM in each case.
Consider `Cc1nnc(N/N=C/c2ccc([N+](=O)[O-])o2)[nH]c1=O`, for which the GI50 in [1] is 1.14 µM; in assay [2], 1.86 µM; in assay [3], 0.425 µM; in [4] it was 3.63 µM; in [5], 1.26 µM; in assay [6], 0.833 µM. In addition, the GI50 is 3.36 µM in assay [7], 3.14 µM in assay [8], 0.815 µM in assay [9] and 1.03 µM in [10]. Besides, the TGI in assay [1] is above 100 µM; in assay [2], above 100 µM; in [3], 40.8 µM; in [4] it was above 100 µM; in assay [5], above 24.5 µM; in [6] it was above 100 µM. Moreover, the TGI in [7] is above 100 µM; in [8], above 48.8 µM; in assay [9], above 100 µM; in [10] it was above 25 µM.
